# From PubChem BioAssay AID328 (DTP/NCI, 2004)
# “And” between values parts separate entries of the source, which are not always exact repeats. Equal entries are not always repeated. Toxic doses and inconclusive results are not listed.
# Tested on: BDF1 mice, P388 leukemia ip, median survival T/C
# Assay: NCI In Vivo Anticancer Drug Screen. Data for tumor model P388 Leukemia (intraperitoneal) in B6D2F1 (BDF1) mice
# Settings: endpoint: median survival time, higher = longer survival
# Procedure, shortened: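 Each value expresses how treatment altered survival: treated-mouse outcome over vehicle-mouse outcome, both groups bearing the transplanted tumour.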
# [1] = dose: 100.0 mg/kg/injection, schedule: Q01DX009 (ip), vehicle: saline
# [2] = dose: 50.0 mg/kg/injection, schedule: Q01DX009 (ip), vehicle: saline with Tween-80
# [3] = dose: 25.0 mg/kg/injection, schedule: Q01DX009 (ip), vehicle: saline with Tween-80
compound,measurement,setting,value
COc1ccc(/C=C/c2ccc3ccccc3[n+]2C)cc1OC,T/C,"dose: 18.75 mg/kg/injection, schedule: Q01DX009 (ip), vehicle: saline",150 % of control
same,T/C,"dose: 37.5 mg/kg/injection, schedule: Q01DX009 (ip), vehicle: saline",160 % of control
O=[N+]([O-])/C=C/c1ccccc1Cl,T/C,"dose: 2.2 mg/kg/injection, schedule: Q01DX009 (ip), vehicle: other",110 % of control
same,T/C,"dose: 3.3 mg/kg/injection, schedule: Q01DX009 (ip), vehicle: other",119 % of control
same,T/C,"dose: 5.0 mg/kg/injection, schedule: Q01DX009 (ip), vehicle: other",122 % of control
same,T/C,"dose: 6.6 mg/kg/injection, schedule: Q04DX003 (ip), vehicle: other",109 % of control
same,T/C,"dose: 7.5 mg/kg/injection, schedule: Q01DX009 (ip), vehicle: other",115 % of control
same,T/C,"dose: 10.0 mg/kg/injection, schedule: Q04DX003 (ip), vehicle: other",104 % of control
same,T/C,"dose: 37.5 mg/kg/injection, schedule: Q01DX009 (sc), vehicle: olive oil, sesame oil, peanut oil",100 % of control
same,T/C,"dose: 37.5 mg/kg/injection, schedule: Q04DX003 (sc), vehicle: olive oil, sesame oil, peanut oil",95 % of control
same,T/C,"dose: 75.0 mg/kg/injection, schedule: Q01DX009 (sc), vehicle: olive oil, sesame oil, peanut oil",109 % of control
same,T/C,"dose: 75.0 mg/kg/injection, schedule: Q04DX003 (sc), vehicle: olive oil, sesame oil, peanut oil",90 % of control
same,T/C,"dose: 150.0 mg/kg/injection, schedule: Q01DX009 (sc), vehicle: olive oil, sesame oil, peanut oil",100 % of control
same,T/C,"dose: 150.0 mg/kg/injection, schedule: Q04DX003 (sc), vehicle: olive oil, sesame oil, peanut oil",104 % of control
CC1CC=CCC1COC(OCC1CC=CCC1C)C1CC=CCC1C (stereo not given),T/C,"dose: 100.0 mg/kg/injection, schedule: Q04DX003 (ip), vehicle: other",104 % of control
same,T/C,"dose: 200.0 mg/kg/injection, schedule: Q04DX003 (ip), vehicle: other",114 % of control
same,T/C,"dose: 400.0 mg/kg/injection, schedule: Q04DX003 (ip), vehicle: other",119 % of control
NC(=O)NOCC1NC(=O)C(CONC(N)=O)NC1=O (stereo not given),T/C,[1],116 % of control
same,T/C,"dose: 400.0 mg/kg/injection, schedule: Q01DX009 (ip), vehicle: saline",105 % of control
CCOC(=O)CNC(=O)CCCCSc1ncnc2nc[nH]c12,T/C,"dose: 20.0 mg/kg/injection, schedule: Q01DX009 (ip), vehicle: Klucel (hydroxypropylcellulose) (HPC)",97 % of control and 98 % of control
same,T/C,"dose: 40.0 mg/kg/injection, schedule: Q01DX009 (ip), vehicle: Klucel (hydroxypropylcellulose) (HPC)",91 % of control
same,T/C,"dose: 80.0 mg/kg/injection, schedule: Q01DX009 (ip), vehicle: Klucel (hydroxypropylcellulose) (HPC)",101 % of control and 111 % of control
same,T/C,"dose: 160.0 mg/kg/injection, schedule: Q01DX009 (ip), vehicle: Klucel (hydroxypropylcellulose) (HPC)",89 % of control and 100 % of control
same,T/C,"dose: 320.0 mg/kg/injection, schedule: Q01DX009 (ip), vehicle: Klucel (hydroxypropylcellulose) (HPC)",87 % of control and 89 % of control
same,T/C,"dose: 640.0 mg/kg/injection, schedule: Q01DX009 (ip), vehicle: Klucel (hydroxypropylcellulose) (HPC)",86 % of control
CCc1nnc2c3cc4ccccc4n3cnn12,T/C,[2],86 % of control
same,T/C,"dose: 100.0 mg/kg/injection, schedule: Q01DX009 (ip), vehicle: saline with Tween-80",87 % of control
same,T/C,"dose: 200.0 mg/kg/injection, schedule: Q01DX009 (ip), vehicle: saline with Tween-80",103 % of control
Nc1nc(=S)c2ncn(C3OC(CO)CC3O)c2[nH]1 (stereo not given),T/C,[1],95 % of control
CN1CCN(CCOC(=O)N2c3ccccc3Sc3ccccc32)CC1,T/C,"dose: 12.5 mg/kg/injection, schedule: Q01DX009 (ip), vehicle: Klucel (hydroxypropylcellulose) (HPC)",100 % of control
same,T/C,"dose: 25.0 mg/kg/injection, schedule: Q01DX009 (ip), vehicle: Klucel (hydroxypropylcellulose) (HPC)",105 % of control
same,T/C,"dose: 50.0 mg/kg/injection, schedule: Q01DX009 (ip), vehicle: Klucel (hydroxypropylcellulose) (HPC)",100 % of control
CCN(CC)CCCC(C)NC(=O)c1ccc2c(c1)C(=O)c1ccccc1C2=O (stereo not given),T/C,"dose: 50.0 mg/kg/injection, schedule: Q01DX005 (ip), vehicle: saline",98 % of control
same,T/C,"dose: 100.0 mg/kg/injection, schedule: Q01DX005 (ip), vehicle: saline",89 % of control
CNC(C)(C)C(SS)c1ccc(Cl)cc1 (stereo not given),T/C,"dose: 6.25 mg/kg/injection, schedule: Q01DX009 (ip), vehicle: saline with Tween-80",110 % of control
same,T/C,"dose: 12.5 mg/kg/injection, schedule: Q01DX009 (ip), vehicle: saline with Tween-80",118 % of control
same,T/C,[3],105 % of control and 121 % of control
same,T/C,"dose: 25.0 mg/kg/injection, schedule: Q04DX003 (ip), vehicle: saline with Tween-80",101 % of control
same,T/C,[2],96 % of control and 110 % of control
same,T/C,"dose: 50.0 mg/kg/injection, schedule: Q04DX003 (ip), vehicle: saline with Tween-80",99 % of control
O=C(NC(Cc1ccccc1)C(=O)CCl)OCc1ccccc1 (stereo not given),T/C,"dose: 4.4 mg/kg/injection, schedule: Q01DX009 (ip), vehicle: saline with Tween-80",112 % of control
same,T/C,"dose: 6.6 mg/kg/injection, schedule: Q01DX009 (ip), vehicle: saline with Tween-80",120 % of control
same,T/C,"dose: 15.0 mg/kg/injection, schedule: Q01DX009 (ip), vehicle: saline with Tween-80",112 % of control
same,T/C,[3],105 % of control and 113 % of control
same,T/C,"dose: 37.5 mg/kg/injection, schedule: Q01DX009 (ip), vehicle: saline with Tween-80",86 % of control
